Measurements reported in ChEMBL document CHEMBL1126247, “Iodoaminopotentidine and related compounds: a new class of ligands with high affinity and selectivity for the histamine H2 receptor” (J Med Chem, 1992).

What was measured:
[1] = target: Histamine H2 receptor (Cavia porcellus) (UniProt P47747); experiment: Histamine H2 receptor antagonism at a concentration of 1 umolar on the isolated guinea pig right atrium.; type: functional, tissue-based; settings: Cardiac atrium
[2] = Inhibition of the positive chronotropic response (H2-antagonism) of guinea pig right atrium relative to cimetidine.; type: functional, Cavia porcellus, Cardiac atrium
[3] = target: Histamine H2 receptor (Cavia porcellus) (UniProt P47747); experiment: Inhibition of the positive chronotropic response (histamine H2 receptor antagonism) of guinea pig right atrium relative to cimetidine.; type: functional, tissue-based; settings: Cardiac atrium
[4] = target: Histamine H2 receptor (Cavia porcellus) (UniProt P47747); experiment: Histamine H2 receptor antagonistic activity at a concentration of 0.3 uM on the isolated guinea pig right atrium; type: functional, tissue-based; settings: Cardiac atrium

Sequence of Histamine H2 receptor (Cavia porcellus) (P47747 whole entry): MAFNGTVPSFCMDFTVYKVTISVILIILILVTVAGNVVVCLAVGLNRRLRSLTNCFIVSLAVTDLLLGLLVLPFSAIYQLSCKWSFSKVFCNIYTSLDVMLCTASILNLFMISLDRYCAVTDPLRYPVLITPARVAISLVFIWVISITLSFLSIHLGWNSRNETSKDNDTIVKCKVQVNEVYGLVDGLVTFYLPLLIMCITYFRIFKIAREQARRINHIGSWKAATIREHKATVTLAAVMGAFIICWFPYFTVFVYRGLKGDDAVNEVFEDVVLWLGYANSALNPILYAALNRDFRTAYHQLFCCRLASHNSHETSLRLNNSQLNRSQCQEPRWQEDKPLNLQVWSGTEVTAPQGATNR

SMILES | pKB [1] | Relative potency [2] | Relative potency [3] | pKB [4]
N#CN/C(=N\CCCNC(=O)CCc1ccccc1)NCCCOc1cccc(CN2CCCCC2)c1 | 6.07 | 47% |  | 
N#CN/C(=N\CCCCCCNC(=O)c1ccccc1)NCCCOc1cccc(CN2CCCCC2)c1 | 6.6 | 158% |  | 
N#CN/C(=N\CCNC(=O)c1ccccc1[N+](=O)[O-])NCCCCOc1cccc(CN2CCCCC2)c1 | 7.52 | 1318% |  | 
N#CN/C(=N\CCCNC(=O)c1ccc(N=[N+]=[N-])cc1)NCCCOc1cccc(CN2CCCCC2)c1 | 6.36 |  | 91% | 
N#CN/C(=N\CCCNc1ccc(N=[N+]=[N-])cc1[N+](=O)[O-])NCCCCOc1cccc(CN2CCCCC2)c1 | 6.56 |  | 145% | 
N#CN/C(=N\CCNC(=O)c1ccccc1)NCCCOc1cccc(CN2CCCCC2)c1 |  | 2630% |  | 7.82
N#CN/C(=N\CCCNC(=O)c1ccccc1)NCCCOc1cccc(CN2CCCCC2)c1 |  | 550% |  | 7.14
Cc1ccc(S(=O)(=O)NCC/N=C(\NC#N)NCCCCOc2cccc(CN3CCCCC3)c2)cc1 | 7.29 | 776% |  | 
Cc1ccc(S(=O)(=O)NCC/N=C(\NC#N)NCCCOc2cccc(CN3CCCCC3)c2)cc1 | 6.13 | 54% |  | 
N#CN/C(=N\CCNS(=O)(=O)c1ccccc1)NCCCCOc1cccc(CN2CCCCC2)c1 | 7.28 | 759% |  | 
CN/C(=N\CCSCc1nc[nH]c1C)NC#N | 6.4 |  |  | 
N#CN/C(=N\CCNC(=O)Cc1ccccc1)NCCCOc1cccc(CN2CCCCC2)c1 | 6.93 | 339% |  | 
N#CN/C(=N\CCOC(=O)c1ccccc1)NCCCOc1cccc(CN2CCCCC2)c1 | 7.64 | 1738% |  | 
N#CN/C(=N\CCCNc1ccccc1[N+](=O)[O-])NCCCCOc1cccc(CN2CCCCC2)c1 | 7.85 |  | 2820% | 
N#CN/C(=N\CCCCNC(=O)c1ccc(N)cc1)NCCCOc1cccc(CN2CCCCC2)c1 | 6.31 | 81% |  | 
Nc1ccc(C(=O)NCCCOc2cccc(CN3CCCCC3)c2)cc1 | 6.82 | 263% |  | 
CC(C)(C)OC(=O)Nc1ccc(CC(=O)NCC/N=C(\NC#N)NCCCCOc2cccc(CN3CCCCC3)c2)cc1 | 6.04 | 44% |  | 
N#CN/C(=N\CCNC(=O)c1ccncc1)NCCCOc1cccc(CN2CCCCC2)c1 | 6.89 | 309% |  | 
N#CN/C(=N\CCCCCNC(=O)c1ccccc1)NCCCOc1cccc(CN2CCCCC2)c1 | 6.58 | 151% |  | 
N#CN/C(=N\CCNC(=O)CCc1ccccc1)NCCCOc1cccc(CN2CCCCC2)c1 | 6.27 | 74% |  | 
N#CN/C(=N\CCNC(=O)c1ccc(N=[N+]=[N-])cc1)NCCCOc1cccc(CN2CCCCC2)c1 | 7.9 |  | 3160% | 
N#CN/C(=N\CCNC(=O)c1ccccc1)NCCCCOc1cccc(CN2CCCCC2)c1 | 7.67 | 1862% |  | 
N#CN/C(=N\CCNC(=O)CCCc1ccccc1)NCCCOc1cccc(CN2CCCCC2)c1 | 6.45 | 112% |  | 
N#CN/C(=N\CCCCNC(=O)c1ccccc1)NCCCOc1cccc(CN2CCCCC2)c1 | 6.81 | 257% |  | 
C/N=C(/NC#N)NCCSCc1csc(NC(=N)N)n1 | 7.8 |  |  | 
N#CN/C(=N\CCNc1ccc(N=[N+]=[N-])cc1[N+](=O)[O-])NCCCOc1cccc(CN2CCCCC2)c1 | 7.39 |  | 977% | 
N#CN/C(=N\CCNC(=O)c1ccc(N)cc1)NCCCCOc1cccc(CN2CCCCC2)c1 |  | 589% |  | 7.17
O=C(NCCCOc1cccc(CN2CCCCC2)c1)NCCNC(=O)c1ccccc1 | 6.1 | 50% |  | 
Nc1ccc(C(=O)NCCNC(=O)NCCCOc2cccc(CN3CCCCC3)c2)cc1 | 7.23 | 676% |  | 
N#CN/C(=N\CCCNC(=O)c1ccccc1)NCCCCOc1cccc(CN2CCCCC2)c1 | 6.6 | 158% |  | 
